From patent US12673961B2 (Agios Pharmaceuticals, Inc., priority 2022, dated 2026) come the findings set out here.

In the first assay the target is T1, human PAH with the R408W mutation (Homo sapiens, UniProt P00439, R408W).
T1 construct: expressed in transfected cells
T1 sequence (P00439 1-452 R408W): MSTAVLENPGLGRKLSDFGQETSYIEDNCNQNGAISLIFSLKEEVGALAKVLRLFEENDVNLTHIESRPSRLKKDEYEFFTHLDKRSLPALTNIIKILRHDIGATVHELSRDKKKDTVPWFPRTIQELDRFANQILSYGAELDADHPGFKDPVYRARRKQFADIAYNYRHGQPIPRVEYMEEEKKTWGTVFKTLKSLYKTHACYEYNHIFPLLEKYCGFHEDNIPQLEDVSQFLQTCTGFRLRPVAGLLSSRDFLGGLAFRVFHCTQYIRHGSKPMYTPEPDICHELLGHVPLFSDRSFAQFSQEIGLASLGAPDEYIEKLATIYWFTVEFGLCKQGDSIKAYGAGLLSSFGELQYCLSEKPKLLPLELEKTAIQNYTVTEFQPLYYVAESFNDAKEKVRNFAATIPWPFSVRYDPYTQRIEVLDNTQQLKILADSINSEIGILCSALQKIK
Briefly: Cell Based Phenylalanine Flux Assay.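 Further: Ten-point dose curve from 2-fold serial dilutions, run in duplicate at 0.5% DMSO final, tracer step used 20 µM sepiapterin and 800 µM labeled phenylalanine.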 Particulars: A375 cells expressing R408W PAH; 24 hrs with compound, then 20 μM sepiapterin and 800 μM 13C9,15N-Phenylalanine for 4 hours; 13C-Tyrosine in media by LC-MS; average where tested multiple times; read-out: AC50.
Procedure: Compounds were resuspended in DMSO, and 2-fold serial dilutions were performed to generate a 10-point dose curve. Compounds were added to plated cells in a total volume of 100 μl, and a final DMSO concentration of 0.5%. Each compound was tested in duplicate. Following compound addition, cells were placed in a 5% CO2, 37° C. tissue culture incubator for 24 hrs. […] 20 μM sepiapterin and 800 μM 13C9,15N-Phenylalanine were added. After 4 hours, cell media was removed. An aliquot of 10 μl of cell media was combined with 200 μl of extraction buffer (80% acetonitrile/20% H2O) for each well. Determination of ^13C-Tyrosine concentration was assessed by liquid chromatography mass spectrometry.
Where a compound was tested multiple times, the average value of the tests is reported.
On to `O=C(c1nnc(C2CC(F)(F)C2)o1)N1CCc2[nH]cnc2C1c1cc2cccc(F)n2n1` (stereo not drawn), for which the AC50 was 1000 to 5000 nM.
The same measure, in the same setting: for `Cn1nc(C(F)F)nc1C(=O)N1CCc2[nH]cnc2[C@H]1c1cc2ccc(F)cn2n1` (single isomer, unassigned) the value was 1000 to 5000 nM; for `Cc1nnc(C(=O)N2CCc3[nH]cnc3C2c2cc3cccc(C(F)F)n3n2)o1` (stereo not drawn), 1000 to 5000 nM.
Still for that read-out and setting: the same measure for `Fc1cccc2cc([C@@H]3c4nc[nH]c4CCN3c3ncccn3)nn12` (single isomer, unassigned): 1000 to 5000 nM.
Same read-out and setting: for `Cc1nnc(N2CCc3[nH]cnc3[C@H]2c2cc3cccc(C(F)F)n3n2)o1` (single isomer, unassigned) the value was more than 5000 nM.

The same assay, now with this note: A375 cells expressing human R408W PAH; 24 hrs compound incubation; 13C-Tyrosine by LC-MS; average where tested multiple times; read-out: AC50.
Regarding `O=C(c1nnc(C2CC2)o1)N1CCc2[nH]cnc2[C@@H]1c1cc2cccc(F)n2n1` [Example 1247, (R)-(5-cyclopropyl-1,3,4-oxadiazol-2-yl)(4-(7-fluoropyrazolo[1,5-a]pyridin-2-yl)-6,7-dihydro-1H-imidazo[4,5-c]pyridin-5(4H)-yl)methanone], the AC50 was 1000 to 5000 nM.
Same read-out and setting: for `Cc1ccn2nc([C@@H]3c4nc[nH]c4CCN3C(=O)c3cnco3)cc2c1` [Example 1185, (S)-(4-(5-methylpyrazolo [1,5-a]pyridin-2-yl)-6,7-dihydro-1H-imidazo[4,5-c]pyridin-5(4H)-yl)(oxazol-5-yl)methanone] the value was 1000 to 5000 nM; for `Cn1ncnc1C(=O)N1CCc2[nH]cnc2[C@H]1c1cc2c(Cl)cccn2n1` [Example 1050, (S)-(4-(4-chloropyrazolo [1,5-a]pyridin-2-yl)-6,7-dihydro-1H-imidazo[4,5-c]pyridin-5(4H)-yl)(1-methyl-1H-1,2,4-triazol-5-yl)methanone], less than 500 nM; for `O=C(c1nnc(-c2ccccn2)o1)N1CCc2[nH]cnc2[C@@H]1c1cc2c(F)cccn2n1` [Example 732, (R)-(4-(4-fluoropyrazolo [1,5-a]pyridin-2-yl)-6,7-dihydro-1H-imidazo[4,5-c]pyridin-5(4H)-yl)(5-(pyridin-2-yl)-1,3,4-oxadiazol-2-yl)methanone], more than 5000 nM.
Still for that read-out and setting: the same measure for `C[C@@H](O)c1nc(C(F)F)c(C(=O)N2CCc3[nH]cnc3[C@@H]2c2cc3c(F)cccn3n2)o1` [Example 711, (4-(difluoromethyl)-2-((R)-1-hydroxyethyl)oxazol-5-yl)((R)-4-(4-fluoropyrazolo [1,5-a]pyridin-2-yl)-6,7-dihydro-1H-imidazo[4,5-c]pyridin-5(4H)-yl)methanone]: more than 5000 nM.
The same measure, in the same setting: the same measure for `O=C(c1nnc(-c2cnn(C3CCC3)c2)o1)N1CCc2[nH]cnc2[C@@H]1c1cc2c(F)cccn2n1` [Example 833, (R)-(5-(1-cyclobutyl-1H-pyrazol-4-yl)-1,3,4-oxadiazol-2-yl)(4-(4-fluoropyrazolo[1,5-a]pyridin-2-yl)-6,7-dihydro-1H-imidazo [4,5-c]pyridin-5(4H)-yl) methanone]: more than 5000 nM; for `Cc1c([C@H]2c3nc[nH]c3CCN2C(=O)c2oc(C(C)(C)O)nc2C(F)F)nn2ccccc12` [Example 787, (R)-(4-(difluoromethyl)-2-(2-hydroxypropan-2-yl)oxazol-5-yl)(4-(3-methylpyrazolo[1,5-a]pyridin-2-yl)-6,7-dihydro-1H-imidazo [4,5-c]pyridin-5(4H)-yl)methanone]: 1000 to 5000 nM; for `O=C(c1nnc(-c2cccnc2)o1)N1CCc2[nH]cnc2[C@H]1c1cc2ccccn2n1` [Example 1346, (S)-(4-(pyrazolo[1,5-a]pyridin-2-yl)-6,7-dihydro-1H-imidazo[4,5-c]pyridin-5(4H)-yl)(5-(pyridin-3-yl)-1,3,4-oxadiazol-2-yl)methanone]: 500 to 1000 nM.
Regarding `Cn1cnc(-c2nnc(C(=O)N3CCc4[nH]cnc4C3c3cc4c(C(F)(F)F)cccn4n3)o2)c1` (stereo in doubt) [Example 934, (S)-(5-(1-methyl-1H-imidazol-4-yl)-1,3,4-oxadiazol-2-yl)(4-(4-(trifluoromethyl)pyrazolo[1,5-a]pyridin-2-yl)-6,7-dihydro-1H-imidazo [4,5-c]pyridin-5(4H)-yl)methanone], the AC50 was 500 to 1000 nM.
On the same count and under the same terms, for `C[C@@H](O)c1nc(C(F)F)c(C(=O)N2CCc3[nH]cnc3[C@H]2c2cc3cccc(Cl)n3n2)o1` [Example 1196, ((S)-4-(7-chloropyrazolo [1,5-a]pyridin-2-yl)-6,7-dihydro-1H-imidazo[4,5-c]pyridin-5(4H)-yl)(4-(difluoromethyl)-2-((R)-1-hydroxyethyl)oxazol-5-yl)methanone] the value was less than 500 nM.
Still for that read-out and setting: for `Cc1cccc2cc([C@@H]3c4nc[nH]c4CCN3C(=O)c3nnc(-c4ncccc4F)o3)nn12` [Example 912, (S)-(5-(3-fluoropyridin-2-yl)-1,3,4-oxadiazol-2-yl)(4-(7-methylpyrazolo[1,5-a]pyridin-2-yl)-6,7-dihydro-1H-imidazo[4,5-c]pyridin-5(4H)-yl)methanone] the value was less than 500 nM.

The assay is the same for the next values; noted with them: A375 cells expressing human R408W PAH; 24 hrs with compound, then sepiapterin and 13C9,15N-Phenylalanine for 4 hours; 13C-Tyrosine by LC-MS; average where tested multiple times; read-out: AC50.
`Cc1cccc(-c2nnc(C(=O)N3CCc4[nH]cnc4[C@@H]3c3cc4c(C)cccn4n3)o2)n1` [Example 1428, (R)-(4-(4-methylpyrazolo [1,5-a]pyridin-2-yl)-6,7-dihydro-1H-imidazo[4,5-c]pyridin-5(4H)-yl)(5-(6-methylpyridin-2-yl)-1,3,4-oxadiazol-2-yl)methanone]: the AC50 is more than 5000 nM.
Turning to `Cc1cccc2cc([C@@H]3c4nc[nH]c4CCN3c3ncc(C(F)(F)F)cn3)nn12` [Example 1802, (S)-4-(7-methylpyrazolo [1,5-a]pyridin-2-yl)-5-(5-(trifluoromethyl)pyrimidin-2-yl)-4,5,6,7-tetrahydro-1H-imidazo[4,5-c]pyridine], the AC50 lay within 500 to 1000 nM.
Take `CC(C)c1cccn2nc([C@@H]3c4nc[nH]c4CCN3c3nnc(-c4cccnc4)o3)cc12` [Example 2261, (S)-2-(4-(4-isopropylpyrazolo [1,5-a]pyridin-2-yl)-1,4,6,7-tetrahydro-5H-imidazo [4,5-c]pyridin-5-yl)-5-(pyridin-3-yl)-1,3,4-oxadiazole]: the AC50 was in the range of 500 to 1000 nM.
Same read-out and setting: for `Fc1ccc(-c2nnc(N3CCc4[nH]cnc4[C@H]3c3cc4c(C(F)F)cccn4n3)o2)cc1` [Example 1913, (S)-2-(4-(4-(difluoromethyl)pyrazolo[1,5-a]pyridin-2-yl)-1,4,6,7-tetrahydro-5H-imidazo [4,5-c]pyridin-5-yl)-5-(4-fluorophenyl)-1,3,4-oxadiazole] the value was less than 500 nM; for `Cc1cccnc1-c1nnc(N2CCc3[nH]cnc3[C@H]2c2cc3c(C(F)F)cccn3n2)o1` [Example 2279, (S)-2-(4-(4-(difluoromethyl)pyrazolo[1,5-a]pyridin-2-yl)-1,4,6,7-tetrahydro-5H-imidazo [4,5-c]pyridin-5-yl)-5-(3-methylpyridin-2-yl)-1,3,4-oxadiazole], less than 500 nM; for `O=C(c1nnc(-c2ccn(C(F)(F)F)n2)o1)N1CCc2[nH]cnc2[C@H]1c1cc2c(F)cccn2n1` [Example 1482, (S)-(4-(4-fluoropyrazolo[1,5-a]pyridin-2-yl)-6,7-dihydro-1H-imidazo[4,5-c]pyridin-5(4H)-yl)(5-(1-(trifluoromethyl)-1H-pyrazol-3-yl)-1,3,4-oxadiazol-2-yl)methanone], less than 500 nM.
The same measure, in the same setting: the same measure for `O=C(c1cnc(C2CC2)o1)N1CCc2[nH]cnc2C1c1cc2c(F)cccn2n1` (stereo in doubt) [Example 2098, (S)-(2-cyclopropyloxazol-5-yl)(4-(4-fluoropyrazolo[1,5-a]pyridin-2-yl)-1,4,6,7-tetrahydro-5H-imidazo[4,5-c]pyridin-5-yl)methanone]: less than 500 nM; for `O=C(c1cnn2cc(C3CC3)ccc12)N1CCc2[nH]cnc2[C@@H]1c1cc2c(C(F)(F)F)cccn2n1` [Example 1717, (R)-(6-cyclopropylpyrazolo [1,5-a]pyridin-3-yl)(4-(4-(trifluoromethyl)pyrazolo [1,5-a]pyridin-2-yl)-6,7-dihydro-1H-imidazo[4,5-c]pyridin-5(4H)-yl)methanone]: more than 5000 nM.
Regarding `Cc1c(-c2ncc(C(=O)N3CCc4[nH]cnc4[C@@H]3c3cc4c(C(F)F)cccn4n3)o2)cnn1C` [Example 2069, (R)-(4-(4-(difluoromethyl)pyrazolo[1,5-a]pyridin-2-yl)-1,4,6,7-tetrahydro-5H-imidazo [4,5-c]pyridin-5-yl)(2-(1,5-dimethyl-1H-pyrazol-4-yl)oxazol-5-yl)methanone], the AC50 was more than 5000 nM.
The same measure, in the same setting: for `CN(C)c1ccc2c(C(=O)N3CCc4[nH]cnc4[C@H]3c3cc4c(F)cccn4n3)cnn2c1` [Example 1772, (S)-(6-(dimethylamino)pyrazolo[1,5-a]pyridin-3-yl)(4-(4-fluoropyrazolo[1,5-a]pyridin-2-yl)-6,7-dihydro-1H-imidazo[4,5-c]pyridin-5(4H)-yl)methanone] the value was 500 to 1000 nM; for `Cc1c[nH]nc1-c1nnc(C(=O)N2CCc3[nH]cnc3[C@H]2c2cc3c(F)cccn3n2)o1` [Example 2296, (S)-(4-(4-fluoropyrazolo [1,5-a]pyridin-2-yl)-1,4,6,7-tetrahydro-5H-imidazo[4,5-c]pyridin-5-yl)(5-(4-methyl-1H-pyrazol-3-yl)-1,3,4-oxadiazol-2-yl)methanone], less than 500 nM.

Usually AC50 stands for the midpoint of the concentration-response curve, whichever way the signal moves.
